Assays:
global apraxia/dyspraxia = experiment: Case study Patient A: clinical observation of speech, coordination, tone and sensory symptoms; format: in vivo, human; conditions: for speech clarity and energy level/stamina: coenzyme Q 100 mg/day, vitamin C 250 mg/day and alpha-lipoic acid 300 mg/day added together to regimen, within 1 week
Experimental: They were placed on omega 3/6/9 fatty acid therapy.
In addition Vitamin K (to prevent adverse effect of vitamin K antagonism by high dose vitamin E), a complete multi-vitamin combination (with selenium, zinc and high B-complex and additional fat soluble vitamins) was also added to the daily regimen.

[1] = cited from earlier work
[2] = Plasma alpha-d-tocopherol level, Patient A; format: in vivo, human; conditions: despite high dose supplementation
Experimental: The vit E dose was increased over several weeks and is now in the range recommended for neurological complications of vit E deficiency (100-200 mg/kg/day alpha-d-tocopherol). Sokol et al. Gastroenterology 1993; 104(6):1727-35. […] All speech therapy and occupational therapy has been phased out due to this rapid and remarkable improvement within 5 months of beginning therapy, at which point it was felt by all evaluators to no longer be necessary.

With `C[C@]12C=CC(=O)C=C1CC[C@@H]1[C@@H]2C(=O)C[C@@]2(C)[C@H]1CC[C@]2(O)C(=O)CO` [prednisone] the “speech, coordination and behavior” value (global apraxia/dyspraxia; oral, used for allergic reactions and asthma exacerbations triggered by food allergy) was “improvement in speech, coordination and behavior”.
For `C[C@@H]1[C@H](O)[C@@H](C)/C=C/C=C/CC/C=C/C=C/C=C/C=C/C(O[C@H]2O[C@H](C)[C@@H](O)[C@H](N)[C@@H]2O)CC2O[C@](O)(CC(O)C(O)CCC(O)CC(O)CC(O)CC(=O)O[C@H]1C)CC(O)C2C(=O)O` (some centres unmarked) [nystatin], the neurologic benefits (global apraxia/dyspraxia) was “Further neurologic benefits”.
In the case of `O=C1O[C@H]([C@@H](O)CO)C(O)=C1O` [vitamin C, ascorbic acid], the “speech clarity and energy level/stamina” value (global apraxia/dyspraxia) is reported as “increased clarity of speech and improved energy level/stamina”.
In the case of `O=C(O)CCCCC1CCSS1` (stereo not drawn) [lipoic acid, α-lipoic acid], the “speech clarity and energy level/stamina” value (global apraxia/dyspraxia) is listed as “increased clarity of speech and improved energy level/stamina” and the pKa [1] is listed as 4.7.
With `Cc1c(C)c2c(c(C)c1O)CC[C@@](C)(CCC[C@H](C)CCC[C@H](C)CCCC(C)C)O2` [alpha-d-tocopherol] the “change of plasma levels of alpha-d-tocopherol” value [2] was “did not change”.
With `COC1=C(OC)C(=O)C(C/C=C(\C)CC/C=C(\C)CC/C=C(\C)CC/C=C(\C)CC/C=C(\C)CC/C=C(\C)CC/C=C(\C)CC/C=C(\C)CC/C=C(\C)CCC=C(C)C)=C(C)C1=O` [coenzyme Q, 2,3-dimethoxy-5-methyl-6-polyprenyl-1,4-benzoquinone] the “speech clarity and energy level/stamina” value (global apraxia/dyspraxia) was “increased clarity of speech and improved energy level/stamina”.
With Polyenylphosphatidylcholine the “stearrhea (fat absorption)” value (global apraxia/dyspraxia; 3 grams/day, within a week of supplementation) was “decreased in stearrhea”.

From patent publication US10398671B2, “Fatty acid formulations and methods of use thereof” (Children's Hospital & Research Center at Oakland, priority 2007, dated 2019)
